Entries after “also recorded” stand apart in the source; their conditions may differ.
Key:
[1] = tested on: NF-κβ-luc reporter; assay: NF-κβ-luc reporter activation in HEK293 (SZ14) cells, screen for STING agonists; type: cell-based; settings: digitonin buffer, 5 hours, read-out: NF-KB EC50
Method: (§1) ISG54 or NF-κβ activity was determined using the Steady-glo buffer system (Promega), and are expressed as EC50 values summarized in Table 3 below. […] This calculation is applicable for compounds with enzyme inhibition activity, as the baseline for an untreated sample may be set at 100% enzymatic activity, and therefore % inhibition is evaluated based on this 100% maximal basis. For these studies, the EC50 value relates to the concentration required to achieve a value 50% activity level above the untreated sample set at 0%.
(§2) Data are shown as fold induction over cells that received DMSO (compound carrier) alone as the mean, +/−standard deviation of duplicate wells per stimulant.

[2] = Oral maximum tolerated dose study in BALB/c mice; type: in vivo
Method: In order to investigate the maximum tolerated dosage of orally administered compounds, 15 female BALB/c mice between 7-10 weeks old were split into three treatment groups. Each group was administered either Cmd 1 or vehicle orally, according to the schedule outlined in Table 5 below. Cmd 1 was provided at 10 mL/kg (0.200 mL/20 g mouse).

[3] = tested on: human natural killer (NK) cells; assay: Human natural killer (NK) cell activation; type: cell-based
[4] = Immunohistochemistry on tissues from treated mice; type: in vivo
[5] = tested on: panel of normal cell lines; assay: Cytotoxicity in a panel of normal cell lines; type: cell-based
[6] = tested on: THP1 cells; assay: Caspase-Glo 3/7 apoptosis assay in THP1 cells; type: cell-based; settings: THP1, Lipofectamine LTX, 20 h
Method: The Apoptosis in THP1 cells was assessed using Caspase-Glo® 3/7 Assay (Promega). […] The caspase-3 and -7 activity was measured by using a pro-luminescent caspase-3/7 substrate that contains the tetrapeptide sequence DEVD which is cleaved to release amino-luciferin, a substrate of luciferase used in the production of light. After incubation for 20 h, Apoptotic activity was assessed by measuring levels of amino-luciferin. % Apoptosis was calculated from fold-change in luminescence compared to DMSO-treated sample. CC50 values are generated by curve fit in Xlfit.

[7] = tested on: human monocytes; assay: Activity in human monocytes; type: cell-based; settings: human monocytes (FIG. 36A)
[8] = tested on: mouse melanoma cells; assay: Apoptosis of mouse melanoma cells; type: cell-based
[9] = tested on: mouse lymphoma cell line A20; assay: Apoptosis in mouse lymphoma cell line A20; type: cell-based; settings: A20 cells
[10] = molecular target: STING-HAQ polymorphic variant (Homo sapiens, UniProt Q86WV6, G230A/H232R/R293Q/R71H); assay: Activation of STING-HAQ polymorphic variant; type: cell-based; settings: major STING-HAQ polymorphic variant in humans
STING-HAQ polymorphic variant, sequence (Q86WV6 whole entry R71H/G230A/H232R/R293Q): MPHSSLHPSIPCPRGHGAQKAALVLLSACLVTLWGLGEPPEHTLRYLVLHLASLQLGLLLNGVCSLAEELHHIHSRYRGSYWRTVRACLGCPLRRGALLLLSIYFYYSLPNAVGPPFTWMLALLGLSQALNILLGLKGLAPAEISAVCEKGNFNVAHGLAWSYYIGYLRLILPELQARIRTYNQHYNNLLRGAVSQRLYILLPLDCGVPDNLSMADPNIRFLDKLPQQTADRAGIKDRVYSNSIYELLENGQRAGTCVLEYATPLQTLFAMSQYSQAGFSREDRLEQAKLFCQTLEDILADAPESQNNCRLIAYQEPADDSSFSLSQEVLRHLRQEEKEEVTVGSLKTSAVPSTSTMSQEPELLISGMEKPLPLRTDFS

[11] = tested on: mouse macrophages; assay: Type I IFN signaling in mouse macrophages; type: cell-based
Method: Activity of secreted luciferase in cell culture supernatant was measured using Invivogen Quanti-luc. Data are shown as fold induction over DMSO treated cells (mean±standard deviation of triplicate wells per stimulant).

[12] = tested on: ISG54 ISRE-luc reporter; assay: ISG54 ISRE-luc reporter activation in HEK293 (SZ14) cells, screen for STING agonists; type: cell-based; settings: digitonin buffer, 5 hours, read-out: IRF EC50
Method: as §1, §2

[13] = tested on: IRF-type I and type III IFN response; assay: IRF-type I and type III IFN response; type: cell-based
[14] = tested on: Tumor cells; assay: Tumor cell growth inhibition (DAPI imaging, ImageXpress); type: cell-based; settings: once daily for 3 days, no lipofectamine
Method: Tumor cells in 96-well plate were treated once daily with Cmd 1 (no lipofectamine) or recombinant IFN (U-IFN) for 3 days. Cells were fixed with 1% paraformaldehyde and stained with DAPI. Cells were automatically imaged on ImageXpress and total number of survival cells were analyzed using MetaXpress software. Results are shown as total number of cells per group or % reduction calculated by normalizing to DMSO treated cells.

[15] = molecular target: T1, STING (Homo sapiens, UniProt Q86WV6, G230A/H232R/R293Q/R71H); assay: Role of STING palmitoylation in THP1 cells; type: cell-based
T1 construct: endogenous in cells; host or cells: THP1 cells
T1 sequence (Q86WV6 whole entry R71H/G230A/H232R/R293Q): as above

[16] = tested on: THP1 cells and PBMCs; assay: Caspase-Glo 3/7 apoptosis assay, THP1 vs. PBMCs; type: cell-based; settings: Lipofectamine LTX, 20 h
Method: The Apoptosis in THP1 cells and PBMCs was assessed using Caspase-Glo® 3/7 Assay (Promega). […] The caspase-3 and -7 activity was measured by using a proluminescent caspase-3/7 substrate that contains the tetrapeptide sequence DEVD which will be cleaved to release aminoluciferin, a substrate of luciferase used in the production of light. After incubation for 20 h, Apoptotic activity was assessed by measure levels of aminoluciferin. % Apoptosis was calculated from fold change in luminescence compared to DMSO treated sample.

[17] = tested on: A20 mouse B cell lymphoma tumor cells; assay: Apoptosis-related genes and ISGs in A20 mouse B cell lymphoma tumor cells; type: cell-based; settings: compared with 2′3′-cGAMP
[18] = tested on: STING-R238A and STING-Y167A; assay: STING loss-of-function mutants, STING-dependent IFN response; type: cell-based
[19] = tested on: THP1 cells and PBMCs; assay: Gene expression of ISGs and PRRs in THP1 and PBMCs (real time PCR); type: cell-based; settings: 5 uM, Lipofectamine LTX, 20 h
Method: (§3) After incubation for 20 h, RNA was extracted and gene expression of different Interferon Stimulated Genes (ISGs) and various Pattern Recognition Receptors (PRRs) was evaluated by real time PCR. Fold Induction was calculated by ΔΔct method.
as §3

[20] = molecular target: T2, STING (Homo sapiens, UniProt Q86WV6); assay: Gel shift assay; type: binding; settings: gel shift with fluorescent close structural analog of Cmd 1
T2 construct: host or cells: SZ14 HEK293 cells stably expressing ISG54 ISRE-luc reporter
T2 sequence (Q86WV6 whole entry): as the sequence (Q86WV6 whole entry R71H/G230A/H232R/R293Q) above, with H71R, A230G, R232H, Q293R counted along it

[21] = tested on: A20 lymphoma; assay: Syngeneic A20 lymphoma mouse model; type: in vivo; settings: for tumor growth upon re-challenge with tumor cells: compared with control
[22] = 60 mg/kg po bid x 10 (first day 1 dose), n=5
[23] = oral, once daily or twice daily up to 60 mgkg/day

`CCCCCCCCCCOc1ccc(C(=O)Oc2ccc(CSP3(=O)OC[C@H]4O[C@@H](n5cnc6c(N)ncnc65)[C@H](F)[C@@H]4OP(=O)(O)OC[C@H]4O[C@@H](n5ccc(=O)[nH]c5=O)[C@H](F)[C@@H]4O3)cc2)cc1.N` (stereo partly drawn) [Cmd 1] showed an EC50 [1] of 50 to 500 nM, an NTR [2, 22] of 0 and an NTRm [2, 22] of 0. For the same molecule, the TR [2, 22] was 0, the “BW Nadir” value ([2]; 60 mg/kg po bid x 10 (first day 1 dose), nadir day (11)) was −3.6% and the NTR ([2]; 60 mg/kg po qd x 10, n=5) was 0. The NTRm ([2]; 60 mg/kg po qd x 10, n=5) was 0, the TR ([2]; 60 mg/kg po qd x 10, n=5) was 0 and the adverse clinical signs [2, 23] was “no adverse clinical signs”. The tolerability [2, 23] was “well tolerated”, the NK cell activation [3] was “activates human natural killer (NK) cells” and the IFN-γ production ([3]; human NK cells) was “induces IFN-γ production”. For the same molecule, the “correlation of anti-tumor activity with immune response” value [4] was “correlates with the induction of the innate and adaptive immune response”, the cytotoxicity [5] was “non-cytotoxic” and the apoptosis [6] was “Causes Cell Death by Apoptosis”. The “activity relative to natural STING ligand 3′,3′-cGAMP” value [7] was “more active”, the apoptosis [8] was “causes apoptosis” and the apoptosis [9] was “induces apoptosis”. The “activation of STING-HAQ variant” value [10] was “capable of activating”, the “activity relative to natural STING ligand 3′,3′-cGAMP” value ([11]; mouse macrophages (FIG. 36B)) was “more active” and the “activation of type 1 IFN signaling” value ([11]; mouse macrophages, similar to 2′,3′-cGAMP) was “highly active”. The EC50 [12] was under 50 nM, the “IRF-type I and type III IFN response” value [13] was “strongly activates” and the tumor cell growth [14] was “Inhibits Tumor Cell Growth”. The “involvement of STING palmitoylation in activation of NF-κB and IRF-type I interferon response” value [15] was “palmitoylation of STING is involved”, the “selectivity of apoptosis induction THP1 vs. PBMCs” value [16] was “selective induction of apoptosis” and the BAX/BCL2 ratio [17] was “higher BAX/BCL2 ratio”. For the same molecule, the “dependence of STING activation on residues R238 and Y167” value [18] was “critical”, the “induction of ISG and PRR-associated genes, THP1 compared to PBMCs” value [19] was “selective and enhanced induction of ISG and PRR-associated genes” and the “binding to STING” value [20] was “binds to STING”. For the same molecule, the survival rate ([21]; combination therapy with cyclophosphamide) was “significantly improve the survival rate”, the tumor-free survival ([21]; in combination with cyclophosphamide) was “results in tumor-free survival” and the survival rate ([21]; monotherapy) was “significantly improve the survival rate”. The tumor growth ([21]; monotherapy, compared with vehicle) was “potently inhibits lymphoma tumor growth; also recorded: considerable tumor growth inhibition; also recorded: inhibit mouse A20 B cell lymphoma tumor cells”, the “migration of CD8 T cells into the tumor site (immunohistochemistry)” value ([21]; tumor tissue, vs vehicle) was “induces migration of CD8 T into the tumor site” and the “migration of NK cells into the tumor site (anti-granzyme B immunohistochemistry)” value ([21]; tumor tissue, vs vehicle) was “induces migration of NK cells into the tumor site”. The “migration of macrophages into the tumor site (anti-F4/80 immunohistochemistry)” value ([21]; tumor tissue, vs vehicle) was “induces migration of macrophages into the tumor site”, the “tumor growth upon re-challenge with tumor cells” value ([21]; tumor-free mice after Cmd 1 + cyclophosphamide treatment) was “no tumor growth” and the “tumor growth upon re-challenge with tumor cells” value ([21]; tumor-free mice after Cmd 1 treatment) was “no tumor growth”.

From patent US11033569B2, “Compounds,Compositions, and methods for the treatment of disease” (Sperovie Biosciences, Inc., priority 2016, dated 2021)
